# From patent US6763607B2, “Method for making homogeneous spray-dried solid amorphous drug dispersions utilizing modified spray-drying apparatus” (Pfizer Inc., priority 2002, dated 2004)
# Experiment: in vitro dissolution test (concentration enhancement) in PBS, microcentrifuge method
# Type: physicochemical
# Conditions: PBS pH 6.5, 37° C.
# Procedure: For this test, samples containing 7.2 mg of Example 1 were added to microcentrifuge tubes, in duplicate. The tubes were placed in a 37° C. temperature-controlled chamber, and 1.8 mL PBS at pH 6.5 and 290 mOsm/kg was added. The samples were quickly mixed using a vortex mixer for about 60 seconds. The samples were centrifuged at 13,000 G at 37° C. for 1 minute. […] The contents of the tubes were mixed on the vortex mixer and allowed to stand undisturbed at 37° C. until the next sample was taken. […] Control 1 and crystalline Drug 1 were tested using the same procedure. The concentration of drug obtained in these samples were used to determine the values of the maximum concentration of drug in the first ninety minutes (Cmax90) and the area under the curve of drug concentration versus time in the first ninety minutes (AUC90). […] The physical properties of the dispersions of Example 3, Control C2 and crystalline Drug 2 alone were determined as Example 1 with the following exceptions. […] Samples were analyzed by HPLC, with absorbance at 297 nm (Hewlett Packard 1100 HPLC, Zorbax SB C18 column, 35% acetonitrile/65% H2O).
# [1] = Drug 2, 2000 μg/mL if all of the drug had dissolved
"AUC90 (Drug 1, area under drug concentration versus time curve in the first ninety minutes)","Cmax90 (Drug 1, maximum concentration of drug in the first ninety minutes)","Drug 1 Concentration (supernatant after centrifugation, time 0 min)",Drug 1 AUC (time 0 min),Drug 1 AUC (time 4 min),Drug 1 Concentration (time 4 min),Drug 1 AUC (time 10 min),Drug 1 Concentration (time 10 min),Drug 1 AUC (time 20 min),Drug 1 Concentration (time 20 min),Drug 1 AUC (time 40 min),Drug 1 Concentration (time 40 min),Drug 1 AUC (time 90 min),Drug 1 Concentration (time 90 min),Drug 1 AUC (time 1200 min),Drug 1 Concentration (time 1200 min),AUC90 [1],Cmax90 [1],SMILES
<88 µg·min/mL,<1 µg/mL,0 µg/mL,0 min-μg/ml,<2 min-μg/ml,<1 µg/mL,<8 min-μg/ml,<1 µg/mL,<18 min-μg/ml,<1 µg/mL,<38 min-μg/ml,<1 µg/mL,<88 min-μg/ml,<1 µg/mL,"<1,200 min-μg/ml",<1 µg/mL,,,"CCOC(=O)N1c2ccc(C(F)(F)F)cc2C(N(Cc2cc(C(F)(F)F)cc(C(F)(F)F)c2)C(=O)OC)CC1CC (stereo not drawn) [Crystalline Drug 1, 4-[(3,5-bis-trifluoromethyl-benzyl)-methoxycarbonyl-amino]-2-ethyl-6-trifluoromethyl-3,4-dihydro-2H-quinoline-1-carboxylic acid ethyl ester]"
,,,,,,,,,,,,,,,,"12,800 min*μg/mL",149 µg/mL,"O=C(N[C@@H](Cc1ccccc1)[C@@H](O)C(=O)N1C[C@@H](O)[C@@H](O)C1)c1cc2cc(Cl)ccc2[nH]1 [Crystalline Drug 2, 5-chloro-1H-indole-2-carboxylic acid [(1S)-benzyl-(2R)-hydroxy-3-((3R,4S)-dihydroxy-pyrrolidin-1-yl-)-3-oxypropyl]amide]"
